Legend:
[1] = Dynamic vapor sorption (DVS) isotherm of the solid form; assay type: physicochemical
Method: DVS was measured using a SMS (Surface Measurement Systems) DVS Intrinsic. The relative humidity at 25° C. was calibrated against deliquescence point of LiCl, Mg(NO3)2 and KCl.
To investigate the solid form stability as a function of humidity, a DVS isotherm plot of Form A was collected at 25° C.

[2] = Solid form stability on heating and cooling, checked by XRPD; assay type: physicochemical; settings: cooling down to room temperature under nitrogen protection, re-exposure to ambient conditions
Method: A PANalytical Empyrean X-ray powder diffractometer was used to collect X-ray diffraction patters as described herein. The diffraction peak position was calibrated using a PANalytical Si reference standard disc.
Form D was generated via vacuum dry of Form X. The XRPD pattern for Form D is provided in FIG. 3A and characteristic peaks are summarized in Table 20. […] (peak temperature) before a possible melting peak at 204.0° C. (peak temperature).
Form E was generated via liquid diffusion in BuOH/n-heptane of Form A at RT. […] (peak temperature) before possible melting peak at 203.1° C. (peak temperature). […] As evidenced by the presence of n-butanol methylene proton at ~3.7 ppm (1.5:1, molar ratio of n-butanol/API) detected by ^1H NMR in FIG. 4D, Form E was deemed to be an n-butanol solvate.

## C[C@H](CC[C@](C)(O)C(F)(F)F)[C@H]1CC[C@H]2[C@@H]3CC=C4C[C@@](C)(O)CC[C@]4(C)[C@H]3CC[C@]12C [Form A]
[1]; 25° C./80% RH
  water uptake (DVS): 0.05%
[1]; DVS isotherm collected at 25° C.
  form change after DVS test (XRPD overlay before and after): no form change
[1]; from DVS at 25° C./80% RH
  hygroscopicity: non-hygroscopic

## C[C@H](CC[C@](C)(O)C(F)(F)F)[C@H]1CC[C@H]2[C@@H]3CC=C4C[C@@](C)(O)CC[C@]4(C)[C@H]3CC[C@]12C [Form D]
[2]; heating to 150° C.
  solid form after heating (XRPD): converted to Form A

## C[C@H](CC[C@](C)(O)C(F)(F)F)[C@H]1CC[C@H]2[C@@H]3CC=C4C[C@@](C)(O)CC[C@]4(C)[C@H]3CC[C@]12C [Form E]
[2]; heating to 140° C.
  solid form after heating (XRPD): converted to Form B

— patent US20260258073A1, “CRYSTALLINE FORMS OF A NEUROACTIVE STEROID” (SAGE THERAPEUTICS, INC., priority 2022, published 2026)
